pIC50: −log10 of the molar value.
Columns and labels:
Panc-1 (pancreas cells) [1] = experiment: LDH cytotoxicity test; format: cell-based; conditions: Panc-1, LDH cytotoxicity test
Procedure: (§1) The half maximum cytotoxicity of 12-imidazolyl-1-dodecanol was determined with the LDH cytotoxicity test.

[2] = test system: MRC-5 (lung fibroblast cells); experiment: LDH cytotoxicity test; format: cell-based; conditions: MRC-5, LDH cytotoxicity test
Procedure: as §1

male CD rats = experiment: Acute toxicity in male CD rats; format: in vivo
Procedure: (§2) The acute toxicity of 12-imidazolyl-1-dodecanol (substance 1) and 12-(1)-imidazolyl-dodecane (substance 2) was tested in male CD rats. For 12-imidazolyl-1-dodecanol the result was an LD50 (14 days) of 1,000 mg/kg, b.w., p.o.; and for 12-(1)-imidazolyl-dodecane an LD50 (14 days) of 1,000 mg/kg b.w., p.o.

HepG2 (liver cells) = experiment: Antineoplastic effect: cancer cell proliferation, cell count after four day incubation; format: cell-based; conditions: read-out: half maximum inhibitory concentration IC50 (cancer cell proliferation)
Procedure: (§3) To this end, four cancer cell lines were seeded into “24 well plates” and allowed to grow for 24 hours. Then a wide array of the concentrations of the test substance 12-imidazolyl-1-dodecanol, dissolved in DMSO, was added to the cell suspensions. The DMSO concentration in the cell medium was 0.01%. […] In all cases a strong inhibition of cancer cell proliferation was determined.
(§4) The following half maximum inhibitory concentrations—IC50 values—of 12-imidazolyl-1-dodecanol were determined: […]

[3] = test system: SW620 (large intestine cells); experiment: as above; format: cell-based; conditions: read-out: half maximum inhibitory concentration IC50 (cancer cell proliferation)
Procedure: as §3, §4

Panc-1 (pancreas cells) [4] = experiment: as above; format: cell-based; conditions: Panc-1, four day incubation, read-out: half maximum inhibitory concentration IC50 (cancer cell proliferation)
Procedure: as §3, §4

PC-3 (prostate cells) = experiment: as above; format: cell-based; conditions: PC-3, four day incubation, read-out: half maximum inhibitory concentration IC50 (cancer cell proliferation)
Procedure: as §3, §4

HepG2 liver cancer cells = experiment: Migration test of HepG2 cells in collagen matrix; format: cell-based; conditions: for drop of migratory activity of the cells: control migratory activity 15%, 900 minutes; for Mean migratory activity: control 15%
Procedure: Migration test conditions: HepG2 liver cancer cells were embedded in a collagen matrix. Thirty individual cells were inspected continuously by photographic means for 900 minutes. The average percentage of migrating cells was determined. Result 2: […]

cytochrome P450 [5] = experiment: In vitro inhibition of cytochrome P450 activity; format: biochemical; conditions: for in vitro inhibition of cytochrome P450 activity: compared with 10-undecinyl acid
cytochrome P450 [6] = experiment: In vivo activity (cytochrome P450 inhibition)
[7] = Acute toxicity in male CD rats; format: in vivo; conditions: male, CD, rat, in vivo, po
Procedure: as §2

[8] = male, CD, rat, in vivo, po, 14 days

12-imidazolyl-1-dodecanol
half maximum cytotoxicity (Panc-1 (pancreas cells) [1]): 500 µM | half maximum cytotoxicity (as restated in text) (Panc-1 (pancreas cells) [1]): 500 μm | half maximum cytotoxicity [2]: 500 µM | First intolerance reaction (male CD rats; male CD rats, p.o.): substance 1: 1,000 mg/kg b.w., p.o. | No effect at the dose rate (male CD rats; male CD rats, p.o.): substance 1: 500 mg/kg b.w., p.o. | LD50 (14 days) (male CD rats; male CD rats, p.o., 14 days): 1,000 mg/kg, b.w. | pIC50 (HepG2 (liver cells)): 7.30 | pIC50 [3]: 7.00 | pIC50 (Panc-1 (pancreas cells) [4]): 7.30 | pIC50 (PC-3 (prostate cells)): 7.30 | drop of migratory activity of the cells (HepG2 liver cancer cells; 1 μM in matrix medium): 50% | drop of migratory activity of the cells (HepG2 liver cancer cells; 10 μM in matrix medium): 75% | Mean migratory activity (HepG2 liver cancer cells; insulin and 12-imidazolyl-1-dodecanol (10 μl)): 15% | effect on insulin-induced increase in migratory activity (HepG2 liver cancer cells; with insulin, after 450 min. observation time): blocks this increase completely | mean migratory activity below that of the control group (HepG2 liver cancer cells; with insulin, after 900 minutes): 13%

C#CCCCCCCCCC(C)(C)C(=O)O [2,2-dimethyl-11-dodecinyl acid]
in vitro inhibition of cytochrome P450 activity (cytochrome P450 [5]): comparably high inhibition | in vivo activity compared with 10-undecinyl acid (cytochrome P450 [6]): far superior

C#CCCCCCCCCCOS(=O)(=O)O [10-undecinyl-sulfate]
in vitro inhibition of cytochrome P450 activity (cytochrome P450 [5]): comparably high inhibition | in vivo activity compared with 10-undecinyl acid (cytochrome P450 [6]): far superior

CCCCCCCCCCCCn1ccnc1 [12-(1)-imidazolyl-dodecane]
First intolerance reaction (male CD rats; [8]): substance 2: 500 mg/kg b.w., p.o. | No effect at the dose rate (male CD rats; [8]): substance 2: 250 mg/kg b.w., p.o. | LD50 at 14 days [7]: 1000 mg/kg

C#CCCCCCCCCCCCCCCCC(=O)O [17-octadecinyl-1-acid]
effectiveness in vitro (cytochrome P450 [5]): especially effective in vitro

insulin: insulin added to HepG2 cells to stimulate migratory activity [reference compound]
Mean migratory activity (HepG2 liver cancer cells; insulin (100 ng/ml) alone): 38% | increase in the migratory activity (times) (HepG2 liver cancer cells; insulin versus control): 2.5 times
